Source: ChEMBL document CHEMBL3232707, “Total synthesis of the lipid mediator PD1n-3 DPA: configurational assignments and anti-inflammatory and pro-resolving actions” (J Nat Prod, 2014)
Activity calls are given as the source filed them.

Tests used:
Mus musculus [1] = test: Antiinflammatory activity in mouse assessed as reduction of zymosan-induced neutrophil recruitment during peritonitis at 10 ng, iv administered 5 mins before zymosan challenge measured after 4 hrs by light microscopy/flow cytometry; format: functional, organism-based
Mus musculus [2] = test: Antiinflammatory activity in mouse assessed as reduction of zymosan-induced number of neutrophils recovered from peritoneal exudates at 10 ng, iv administered 5 mins before zymosan challenge measured after 4 hrs by light microscopy/flow cytometry; format: functional, organism-based
Macrophage [3] = test: Pro-resolving activity in human macrophages assessed as increase of phagocytosis of fluorescence-labeled yeast cell wall particles at 100 nM to 10 pM preincubated for 15 mins measured after 60 mins; format: functional, cell-based
Macrophage [4] = test: Pro-resolving activity in human macrophages assessed as increase of phagocytosis of bisbenzimide-labeled apoptotic neutrophils at 100 nM to 10 pM preincubated for 15 mins measured after 60 mins; format: functional, cell-based

Measured: Activity

CC/C=C\C[C@H](O)\C=C/C=C/C=C/[C@H](O)C/C=C\CCCCCC(=O)O
active: Mus musculus [1] | Mus musculus [2] | Macrophage [3] | Macrophage [4]

CC/C=C\C[C@H](O)\C=C/C=C/C=C/[C@H](O)C/C=C\C/C=C\CCC(=O)O
active: Mus musculus [1] | Mus musculus [2] | Macrophage [3] | Macrophage [4]
